Results: ChEMBL document CHEMBL1133790, “Heteroaryl and cycloalkyl sulfonamide hydroxamic acid inhibitors of matrix metalloproteinases” (Bioorg Med Chem Lett, 2001)
Calls of active or inactive are those of the source. The rule behind the calls is not given here.

How the values were obtained:
[1] = target: T1, Matrix metalloproteinase-9 (Homo sapiens, UniProt P14780); experiment: Inhibition of Matrix metalloprotease-9
Interstitial collagenase = target: T2, Interstitial collagenase (Homo sapiens, UniProt P03956); experiment: Inhibition of Matrix metalloprotease-1
T2 sequence (P03956 whole entry): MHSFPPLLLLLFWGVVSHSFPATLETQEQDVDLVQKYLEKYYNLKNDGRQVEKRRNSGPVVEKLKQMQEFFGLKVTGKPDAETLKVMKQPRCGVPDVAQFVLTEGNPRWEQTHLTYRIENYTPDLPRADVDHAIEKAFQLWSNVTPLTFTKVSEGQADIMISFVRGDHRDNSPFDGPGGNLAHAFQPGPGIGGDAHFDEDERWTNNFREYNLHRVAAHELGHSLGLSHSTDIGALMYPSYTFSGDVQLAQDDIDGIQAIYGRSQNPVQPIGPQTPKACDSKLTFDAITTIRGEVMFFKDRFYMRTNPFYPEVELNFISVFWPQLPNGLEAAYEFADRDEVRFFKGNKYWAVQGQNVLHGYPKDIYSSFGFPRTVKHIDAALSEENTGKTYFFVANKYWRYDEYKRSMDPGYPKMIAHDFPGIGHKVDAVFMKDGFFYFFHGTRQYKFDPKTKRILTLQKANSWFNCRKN

Collagenase 3 [2] = target: T3, Collagenase 3 (Homo sapiens, UniProt P45452); experiment: Inhibition of Matrix metalloprotease-13
[3] = target: T4, Interstitial collagenase (Homo sapiens) (UniProt P03956); experiment: Inhibition of Matrix metalloprotease-1 at 1 uM
T4 sequence (whole entry): T2 sequence (P03956 whole entry)

Rattus norvegicus [4] = experiment: In vivo inhibitory activity against Matrix metalloprotease-13 in rat dialysis implant bioactivity model at a concentration of 50 mg/kg; Not active; assay type: functional, organism-based; set-up: dose 50 mg/kg
Rattus norvegicus [5] = experiment: Inhibitory activity against MMP-9 in rat dialysis implant bioactivity model at oral dose of 100 mg/kg; In active; assay type: functional, organism-based; set-up: dose 100 mg/kg
[6] = target: T1, Matrix metalloproteinase-9; experiment: Inhibition of Matrix metalloprotease-9 at 10 uM
Collagenase 3 [7] = target: T3, Collagenase 3; experiment: Inhibition of Matrix metalloprotease-13 at 0.3 uM
[8] = target: T1, Matrix metalloproteinase-9; experiment: Inhibition of Matrix metalloprotease-9 at 0.3 uM

T1 sequence (P14780 whole entry): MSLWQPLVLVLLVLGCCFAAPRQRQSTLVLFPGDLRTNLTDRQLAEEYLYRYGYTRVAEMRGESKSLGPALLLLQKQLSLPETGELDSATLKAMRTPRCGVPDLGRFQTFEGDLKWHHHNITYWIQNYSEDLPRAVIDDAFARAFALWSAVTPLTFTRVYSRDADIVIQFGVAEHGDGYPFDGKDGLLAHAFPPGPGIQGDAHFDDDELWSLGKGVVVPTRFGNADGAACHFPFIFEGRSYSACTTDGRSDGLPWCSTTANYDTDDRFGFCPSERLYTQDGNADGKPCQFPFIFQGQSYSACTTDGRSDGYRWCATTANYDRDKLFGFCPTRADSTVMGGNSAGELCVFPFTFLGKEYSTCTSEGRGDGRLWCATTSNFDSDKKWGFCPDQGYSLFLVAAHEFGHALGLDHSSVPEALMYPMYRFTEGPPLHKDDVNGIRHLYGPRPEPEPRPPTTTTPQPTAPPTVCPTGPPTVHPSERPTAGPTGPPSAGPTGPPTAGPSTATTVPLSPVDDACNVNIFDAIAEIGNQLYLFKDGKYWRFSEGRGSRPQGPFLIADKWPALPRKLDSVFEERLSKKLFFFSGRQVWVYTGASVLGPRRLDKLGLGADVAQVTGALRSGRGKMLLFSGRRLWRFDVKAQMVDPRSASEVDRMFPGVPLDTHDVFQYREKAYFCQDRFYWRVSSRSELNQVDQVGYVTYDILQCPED

COc1ccc(S(=O)(=O)N(Cc2ccccc2)[C@H]2CCCC[C@H]2C(=O)NO)cc1
IC50 [1]: 318 nM | IC50 (Interstitial collagenase): 361 nM

COc1ccc(S(=O)(=O)N(Cc2ccccc2)c2c(C(=O)NO)csc2Br)cc1
IC50 (Collagenase 3 [2]): 427 nM

COc1ccc(S(=O)(=O)N(Cc2ccccc2)c2c(C(=O)NO)cnn2C)cc1
IC50 [1]: 900 nM | inhibition [3]: 22%

COc1ccc(S(=O)(=O)N(Cc2ccccc2)c2c(C(=O)NO)cc(OC)nc2OC)cc1
Activity (Rattus norvegicus [4]): inactive

COc1ccc(S(=O)(=O)N(Cc2cccnc2)c2c(C(=O)NO)csc2Br)cc1
Activity (Rattus norvegicus [5]): inactive | inhibition [3]: 50%

COc1ccc(S(=O)(=O)N(Cc2ccccc2)c2ccsc2C(=O)NO)cc1
inhibition [6]: 57% | inhibition [3]: 19%

C#Cc1scc(C(=O)NO)c1N(Cc1ccccc1)S(=O)(=O)c1ccc(OC)cc1
inhibition (Collagenase 3 [7]): 35% | inhibition [3]: 49% | inhibition [8]: 38%

COc1ccc(S(=O)(=O)N(Cc2ccccc2)c2cscc2C(=O)NO)cc1
inhibition [6]: 67% | inhibition [3]: 40%

COc1ccc(S(=O)(=O)N(Cc2ccccc2)C2CCCC[C@H]2C(=O)NO)cc1 (some centres not stated)
IC50 [1]: 181 nM | IC50 (Interstitial collagenase): 174 nM
